Experimental data published in US10988449B2, “Isoxazole derivatives as nuclear receptor agonists and uses thereof” (IL DONG PHARMACEUTICAL CO., LTD., priority 2017, dated 2021).
Read-outs that look alike come from different tables or passages of the source.

Experiments:
[1] = in vivo; cited from earlier work
[2] = multiple rodent models; cited from earlier work
[3] = test system: hepatic stellate cells (HSC); conditions: cultured HSCs; cited from earlier work
[4] = target: T1, human FXR (Homo sapiens, UniProt Q96RI1); assay: FXR reporter assay (cellular FXR activities); assay type: cell-based; conditions: for EC50: FXR reporter cells, 24 hours incubation, luciferase, read-out: Reporter Cell EC50; for Emax: read-out: Emax (%) (GW4064 Emax = 100%)
T1 construct: expressed in transfected cells
T1 sequence (Q96RI1 1-486): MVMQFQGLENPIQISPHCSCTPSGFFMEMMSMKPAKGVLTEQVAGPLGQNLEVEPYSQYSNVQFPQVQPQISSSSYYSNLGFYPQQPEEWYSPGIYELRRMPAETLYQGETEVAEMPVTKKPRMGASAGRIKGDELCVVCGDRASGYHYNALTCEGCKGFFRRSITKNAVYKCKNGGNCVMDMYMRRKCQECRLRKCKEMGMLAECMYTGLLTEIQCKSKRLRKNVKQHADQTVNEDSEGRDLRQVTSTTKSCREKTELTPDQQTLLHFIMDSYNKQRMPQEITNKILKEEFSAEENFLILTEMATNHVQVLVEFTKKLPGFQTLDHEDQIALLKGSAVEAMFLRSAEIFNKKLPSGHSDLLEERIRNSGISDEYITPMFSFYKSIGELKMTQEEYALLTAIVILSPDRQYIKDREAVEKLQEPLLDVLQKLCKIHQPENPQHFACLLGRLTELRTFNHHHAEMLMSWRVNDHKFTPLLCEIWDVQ
Summary of the method: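 Reporter cells overexpressing human FXR exposed to compound dilutions for 24 h at 37 °C, 5% CO2. Luciferase signal used to calculate EC50.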

[5] = Mouse pharmacokinetics; assay type: in vivo; design: concentration or dose not given beside the values; conditions: Balb/c male mice, blood samples 15 to 1140 min, LC-MS/MS
Experimental: To evaluate the pharmacokinetics test, the invented 18 compounds of examples were determined as follows. Blood samples are collected at 15, 30, 60, 120, 240, 480, 1140 min. Quantification is by using a LC-MS/MS method specific to the selected compound. Pharmacokinetics parameters are calculated using WinNonLinnon compartmental analysis software.

[6] = db/db, ob/ob and KK-A(y)mice; cited from earlier work

| Compound | EC50 [4] | Emax [4] | AUC ([5]; mouse, read-out: AUC) | further results |
| --- | --- | --- | --- | --- |
| CC[C@H]1[C@@H](O)[C@@H]2[C@H](CC[C@]3(C)[C@@H]([C@H](C)CCC(=O)O)CC[C@@H]23)[C@@]2(C)CC[C@@H](O)C[C@@H]12 [Compound 6EtCDCA, 6-ethyl-chenodeoxycholic acid] |  |  |  | impairment of bile flow [1]: fully reverse the impairment of bile flow; liver cell injury caused by the cytotoxic lithocholic acid [1]: protect the hepatocytes against liver cell injury; hepatic fibrosis [2]: promote resolution of hepatic fibrosis; expression of fibrotic markers such as α-smooth muscle actin and α1(I) collagen [3]: decreased expression of fibrotic markers |
| CC(C)Nc1cc(C#Cc2ccc(OCc3c(-c4c(Cl)cccc4Cl)noc3C3CC3)cc2Cl)cc(C(=O)O)c1 [Compound I-54, 3-((2-chloro-4-((5-cyclopropyl-3-(2,6-dichlorophenyl)isoxazol-4-yl)methoxy)phenyl)ethynyl)-5-(isopropylamino)benzoic acid] | ≤ 20 nM | > 100% | 934 ng·h/mL |  |
| Cc1cc(C#Cc2ccc(OCc3c(-c4c(Cl)cccc4Cl)noc3C3CC3)cc2Cl)cc(C(=O)O)c1 [Compound I-63, 3-((2-chloro-4-((5-cyclopropyl-3-(2,6-dichlorophenyl)isoxazol-4-yl)methoxy)phenyl)ethynyl)-5-methylbenzoic acid] | 60 to 200 nM | 78% | 11900 ng·h/mL |  |
| CC(C)(C)OC(=O)Nc1cc(C#Cc2ccc(OCc3c(-c4c(Cl)cccc4Cl)noc3C3CC3)cc2Cl)cc(C(=O)O)c1 [Compound I-77, 3-((tert-butoxycarbonyl)amino)-5-((2-chloro-4-((5-cyclopropyl-3-(2,6-dichlorophenyl)isoxazol-4-yl)methoxy)phenyl)ethynyl)benzoic acid] | ≤ 20 nM | 100% | 1010 ng·h/mL |  |
| O=C(O)c1cc(C#Cc2ccc(OCc3c(-c4c(Cl)cccc4Cl)noc3C3CC3)cc2Cl)c2cn[nH]c2c1 [Compound I-89, 4-((2-chloro-((5-cyclopropyl-3-(2,6-dichlorophenyl)isoxazol-4-yl)methoxy)phenyl)ethynyl)-1H-indazole-6-carboxylic acid] | 20 to 60 nM | 88% | 271 ng·h/mL |  |
| O=C(O)c1cc(C#Cc2ccc(OCc3c(-c4c(Cl)cccc4Cl)noc3C3CC3)cc2Cl)c2cc[nH]c2c1 [Compound I-91, 4-((2-chloro-4-((5-cyclopropyl-3-(2,6-dichlorophenyl)isoxazol-4-yl)methoxy)phenyl)ethynyl)-1H-indole-6-carboxylic acid] | ≤ 20 nM | > 100% | 544 ng·h/mL |  |
| CC(C)c1nc2cc(C#Cc3ccc(OCc4c(-c5c(Cl)cccc5Cl)noc4C4CC4)cc3Cl)cc(C(=O)O)c2o1 [Compound I-106, 5-((2-chloro-4-((5-cyclopropyl-3-(2,6-dichlorophenyl)isoxazol-4-yl)methoxy)phenyl)ethynyl)-2-isopropylbenzo[d]oxazole-7-carboxylic acid] | 20 to 60 nM | 96% | 2250 ng·h/mL |  |
| CC(C)c1onc(-c2c(Cl)cccc2Cl)c1COc1ccc(/C=C/c2cccc(C(=O)O)c2)c(Cl)c1 [WO2000037077 GW4064] |  |  |  | insulin sensitivity [6]: improved insulin sensitivity; plasma glucose levels [6]: reduced plasma glucose levels; AUC [5]: 253.31 ng·h/mL |

Continued, in another order:

| EC50 [4] | Emax [4] | AUC ([5]; mouse, read-out: AUC) | Compound | further results |
| --- | --- | --- | --- | --- |
| 20 to 60 nM | 92% | 680 ng·h/mL | O=C(O)c1cc(F)cc(C#Cc2ccc(OCc3c(-c4c(Cl)cccc4Cl)noc3C3CC3)cc2Cl)c1 [Compound I-30, 3-((2-chloro-4-((5-cyclopropyl-3-(2,6-dichlorophenyl)isoxazol-4-yl)methoxy)phenyl)ethynyl)-5-fluorobenzoic acid] |  |
| 60 to 200 nM | 92% | 1000 ng·h/mL | O=C(O)c1ccc(F)c(C#Cc2ccc(OCc3c(-c4c(Cl)cccc4Cl)noc3C3CC3)cc2Cl)c1 [Compound I-38, 3-((2-chloro-4-((5-cyclopropyl-3-(2,6-dichlorophenyl)isoxazol-4-yl)methoxy)phenyl)ethynyl)-4-fluorobenzoic acid] |  |
| 20 to 60 nM | > 100% | 3310 ng·h/mL | CNc1cc(C#Cc2ccc(OCc3c(-c4c(Cl)cccc4Cl)noc3C3CC3)cc2Cl)cc(C(=O)O)c1 [Compound I-52, 3-((2-chloro-4-((5-cyclopropyl-3-(2,6-dichlorophenyl)isoxazol-4-yl)methoxy)phenyl)ethynyl)-5-(methylamino)benzoic acid] |  |
| 60 to 200 nM | 86% | 205 ng·h/mL | O=C(O)c1cc(C#Cc2ccc(OCc3c(-c4c(Cl)cccc4Cl)noc3C3CC3)cc2Cl)cc2[nH]ncc12 [Compound I-99, 6-((2-chloro-4-((5-cyclopropyl-3-(2,6-dichlorophenyl)isoxazol-4-yl)methoxy)phenyl)ethynyl)-1H-indazole-4-carboxylic acid] |  |
